Experiments:
[1] = test system: A. fumigatus-induced asthma model; assay: Bronchial hyper-responsiveness (Buxco plethysmograph, methacholine) in A. fumigatus-induced asthma model; type: in vivo, mice; conditions: vs PBS
Description: (§1) C57BL/6 mice were sensitized via intraperitoneal (i.p.) and subcutaneous (s.c.) route with a commercially available preparation of soluble A. fumigatus antigens dissolved in 0.2 ml of IFA. After three intranasal instillations of Aspergillus antigen, each spaced one-week apart, each mouse received 1×10^7 swollen conidia suspended in 30 μl of PBS tween 80 (0.1%; vol/vol) via intratracheal (i.t.) administration. All mice were euthanized with an overdose of Nembutal and lung homogenates were collected immediately following euthanization. Mouse PTX3 ELISA was completed on lung homogenate supernatant.
(§2) A. fumigatus-Induced Asthma Model was Established as Described in Example 1.
(§3) Mice were treated every other day from day 0 to 15 or from day 15 to 30 with PBS or human PTX3 (R&D System, Minneapolis, Minn., USA; 10 μg/injection). At days 15 and 30 after conidia challenge, bronchial hyper-responsiveness was assessed in a Buxco™ plethysmograph (Buxco, Troy, N.Y.) after intravenous methacholine injection (420 μg/Kg). Other parameters were determined after the assessment of airway hyper-responsiveness.

[2] = test system: A. fumigatus-induced asthma model; assay: Cytokine levels in whole lung homogenate in A. fumigatus-induced asthma model; type: in vivo, mice; conditions: day 30 after conidia challenge
Description: as §1, §2, §3
To investigate whether the treatment with exogenous PTX3 modified the cytokine profile in asthma, the levels of different cytokines in whole lungs homogenate from PBS and PTX3-treated mice at day 30 after conidia challenge were measured.

PTX3: human PTX3 (pentraxin 3) polypeptide from R&D System, administered to mice at 10 μg/injection
airway resistance at day 15 after conidia ([1]; treated every other day from day 0 to 15, 10 μg/injection): significantly increased
airway resistance at day 30 after conidia ([1]; treated every other day from day 15 to 30, 10 μg/injection): significantly decreased
increase in IL-4 ([2]; vs PBS treatment): 1.8 fold
increase in IL-10 ([2]; vs PBS treatment): 1.8 fold
increase in IL-17 ([2]; vs PBS treatment): 3.7 fold
reduction in IFN-γ ([2]; vs PBS treatment): 1.8 fold
IL-18 levels ([2]; vs control group): significantly increased
increase in CCL22 (MDC) levels ([2]; vs control group): 1.7 fold
increase in IL-1α levels ([2]; vs control group): 1.7 fold
increase in IL-1β levels ([2]; vs control group): 1.7 fold

Source: US20140141459A1, “PENTRAXIN 3 ASSOCIATION WITH ASTHMA” (THE REGENTS OF THE UNIVERSITY OF MICHIGAN, priority 2011, published 2014)
